The source of these data is PubChem BioAssay (NCI).

Values joined by “and” are separate entries in the source; they are usually repeats but may differ in a detail not shown here. Equal entries are not always repeated.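 In this assay, cells in 96-well plates receive the compound at five concentrations for 48 hours. Endpoints are linearly interpolated between the surrounding concentrations. The concentration for 50% growth inhibition is given as GI50. TGI is the concentration that stops growth completely.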 Some results are limits rather than exact numbers.

Test systems include MDA-MB-435; HT29 colon; SK-OV-3 ovarian; SNB-19 CNS; MALME-3M melanoma; COLO 205 colon; EKVX NSCLC; OVCAR-3 ovarian; HL-60(TB) leukemia; NCI-H460 lung.
What all share (assay): inhibition of tumour cell growth, NCI panel, 48 h

Turning to `N/C(CC(=O)Nc1cc(C(F)(F)F)ccc1Cl)=N\O`, the TGI in the assay with MDA-MB-435, in the assay with HT29 colon, in the assay with SK-OV-3 ovarian, in the assay with SNB-19 CNS, with MALME-3M melanoma and with COLO 205 colon was above 100 µM in each case. The TGI in the assay with EKVX NSCLC, in the assay on OVCAR-3 ovarian, in the assay with HL-60(TB) leukemia and with NCI-H460 lung was above 100 µM in each case.

As for `CC(C)(C)OC(=O)NC(Cc1ccccc1)C(=O)OCN1C(=O)C2C3C=CC(C2C1=O)C1C2C(=O)N(COC(=O)C(Cc4ccccc4)NC(=O)OC(C)(C)C)C(=O)C2C31` (configuration not stated), the TGI in the assay on MDA-MB-435 was above 100 µM; with HT29 colon, above 100 µM; with SK-OV-3 ovarian, above 95.5 µM; with SNB-19 CNS, above 82.7 µM; with MALME-3M melanoma, above 100 µM; in the assay on COLO 205 colon, 28.7 µM. Moreover, the TGI is above 100 µM in the assay with EKVX NSCLC, above 100 µM in the assay on OVCAR-3 ovarian, above 57.5 µM in the assay on HL-60(TB) leukemia and above 100 µM in the assay with NCI-H460 lung.

As to `CCN1CCN(c2nc(NCCCNc3ccnc4cc(Cl)ccc34)c3ccccc3n2)CC1`, the GI50 in the assay with MDA-MB-435 was 1.92 µM; in the assay on HT29 colon it was 2.6 µM; in the assay with SK-OV-3 ovarian it was 2.98 µM; in the assay with SNB-19 CNS, 2.96 µM; in the assay with MALME-3M melanoma it was 1.78 µM; in the assay on COLO 205 colon, 1.66 µM. Besides, the GI50 was 3.03 µM with EKVX NSCLC, 2.9 µM in the assay with OVCAR-3 ovarian, 2.18 µM with HL-60(TB) leukemia and 2.14 µM with NCI-H460 lung. Besides, the TGI with MDA-MB-435 came out at 3.53 µM; in the assay on HT29 colon it was 7.22 µM; in the assay with SK-OV-3 ovarian it was 9.23 µM; with SNB-19 CNS, 11.5 µM; in the assay on MALME-3M melanoma it was 3.45 µM; in the assay with COLO 205 colon it was 3.46 µM. The TGI came out at 14.4 µM with EKVX NSCLC, 10.3 µM with OVCAR-3 ovarian, 4.25 µM with HL-60(TB) leukemia and 5.1 µM with NCI-H460 lung.

Turning to `O=C(CSc1nc2ccc([N+](=O)[O-])cc2[nH]1)Nc1ccc(F)c(Cl)c1`, the GI50 in the assay on MDA-MB-435 was 2.6 µM; with HT29 colon, 3.14 µM; in the assay on SK-OV-3 ovarian, 1.42 µM; in the assay with SNB-19 CNS, 2.83 µM; in the assay with MALME-3M melanoma, 1.75 µM; in the assay on COLO 205 colon, 1.6 µM. In addition, the GI50 is 1.85 µM in the assay on EKVX NSCLC, 2 µM in the assay with OVCAR-3 ovarian, 2.21 µM with HL-60(TB) leukemia and 2.87 µM with NCI-H460 lung. Also, the TGI stood at 12.6 µM in the assay on MDA-MB-435; 11.9 µM in the assay with HT29 colon; 4.79 µM in the assay on SK-OV-3 ovarian; 13.1 µM in the assay with SNB-19 CNS; 6.96 µM with MALME-3M melanoma; 3.3 µM in the assay with COLO 205 colon. Besides, the TGI with EKVX NSCLC worked out at 8.85 µM; in the assay on OVCAR-3 ovarian it was 10.1 µM; with HL-60(TB) leukemia, 6.26 µM; in the assay on NCI-H460 lung, 11.3 µM.

With `C=CC(=O)N[C@H]1C=C(C)c2c(-c3cnc4ccccc4c3)c3c(N)ncnc3n2C1`, the GI50 with MDA-MB-435 is 17.8 µM; in the assay on HT29 colon it was 11 µM; with SK-OV-3 ovarian, 0.171 µM; in the assay with SNB-19 CNS it was 32.4 µM; in the assay on MALME-3M melanoma, 11.6 µM; with COLO 205 colon it was 15.4 µM. For the same molecule, the GI50 is 0.0785 µM with EKVX NSCLC, 8.27 µM in the assay on OVCAR-3 ovarian, 29.8 µM in the assay on HL-60(TB) leukemia and 18.1 µM in the assay on NCI-H460 lung. In addition, the TGI in the assay with MDA-MB-435 is 67 µM; in the assay on HT29 colon, above 100 µM; with SK-OV-3 ovarian it was 4.2 µM; in the assay on SNB-19 CNS it was above 100 µM; in the assay with MALME-3M melanoma it was 25.7 µM; in the assay with COLO 205 colon it was 43.8 µM. Besides, the TGI is 42.6 µM in the assay on EKVX NSCLC, 52.2 µM in the assay on OVCAR-3 ovarian, above 80.4 µM in the assay with HL-60(TB) leukemia and 72.8 µM in the assay on NCI-H460 lung.

`CCc1c2c(nc3cc4c(cc13)OCO4)-c1cc3c(c(=O)n1C2)COC(=O)[C@]3(O)CC`: the GI50 in the assay with MDA-MB-435 is 0.0182 µM and 0.0961 µM; in the assay on HT29 colon, 0.0537 µM; in the assay with SNB-19 CNS, 0.0164 µM; with MALME-3M melanoma, 0.289 µM; in the assay on COLO 205 colon, 1.17 µM; with EKVX NSCLC, 4.31 µM and 1.8 µM. For the same molecule, the GI50 in the assay with OVCAR-3 ovarian was 0.476 µM and 1.87 µM; in the assay with HL-60(TB) leukemia, below 0.001 µM; with NCI-H460 lung, below 0.001 µM. Also, the TGI in the assay on MDA-MB-435 was above 100 µM; in the assay on HT29 colon, above 100 µM; in the assay with SNB-19 CNS, 0.455 µM; in the assay on MALME-3M melanoma, above 100 µM; in the assay with COLO 205 colon, above 100 µM; in the assay on EKVX NSCLC it was above 100 µM. Also, the TGI was above 100 µM in the assay on OVCAR-3 ovarian; 1.09 µM and 0.617 µM in the assay on NCI-H460 lung.

As to `O=C(Nc1cccc(-n2ccc3c(NC(=O)c4ccccc4)nccc32)c1)c1cccc(C(F)(F)F)c1`, the GI50 in the assay on MDA-MB-435 is 0.0172 µM; in the assay on HT29 colon, 0.0332 µM; in the assay on SK-OV-3 ovarian, 0.0331 µM; in the assay on SNB-19 CNS, 0.0453 µM; in the assay on MALME-3M melanoma, 0.0464 µM; in the assay on EKVX NSCLC, 0.0715 µM. In addition, the GI50 is 0.0205 µM in the assay with OVCAR-3 ovarian, 0.0343 µM in the assay on HL-60(TB) leukemia and 0.0354 µM in the assay on NCI-H460 lung. Besides, the TGI in the assay with MDA-MB-435 is 0.043 µM; in the assay on HT29 colon, 0.388 µM; in the assay on SK-OV-3 ovarian, 15.1 µM; with SNB-19 CNS, above 100 µM; in the assay with MALME-3M melanoma, 10.4 µM; in the assay on EKVX NSCLC, above 100 µM. In addition, the figures for the TGI with OVCAR-3 ovarian, with HL-60(TB) leukemia and in the assay on NCI-H460 lung were 0.0463 µM, 0.653 µM and 1.22 µM, respectively.

Regarding `CC(=O)c1ccc(Nc2cc(-c3ccccc3)nc3c(O)cccc23)cc1`, the GI50 is 23.6 µM in the assay with MDA-MB-435; 20.7 µM with HT29 colon; 57.1 µM in the assay with SK-OV-3 ovarian; 19.6 µM in the assay with MALME-3M melanoma; 32.1 µM in the assay with COLO 205 colon; 28.7 µM in the assay with EKVX NSCLC. Besides, the GI50 in the assay on OVCAR-3 ovarian is above 100 µM; in the assay on HL-60(TB) leukemia, 3.13 µM. Also, the TGI with MDA-MB-435 was 65.3 µM; in the assay on HT29 colon it was 43 µM; with SK-OV-3 ovarian, above 100 µM; in the assay on MALME-3M melanoma it was 68.3 µM; in the assay on COLO 205 colon, above 100 µM; in the assay on EKVX NSCLC, above 100 µM. Further, the figures for the TGI with OVCAR-3 ovarian and in the assay with HL-60(TB) leukemia were above 100 µM and 30.6 µM, respectively.

As for `O=C(c1ccc2ccccc2c1)c1c(C(F)(F)F)n([O-])c2cc(Cl)c(Cl)cc2[n+]1=O`, the GI50 in the assay on MDA-MB-435 is 1.92 µM; with HT29 colon it was 1.49 µM; in the assay with SK-OV-3 ovarian it was 1.58 µM; with MALME-3M melanoma it was 1.58 µM; in the assay with EKVX NSCLC, 2.04 µM; with OVCAR-3 ovarian, 1.39 µM. The GI50 in the assay on HL-60(TB) leukemia is 1.81 µM; in the assay with NCI-H460 lung, 2.02 µM. The TGI turned out to be 3.56 µM in the assay on MDA-MB-435; 2.81 µM in the assay on HT29 colon; 3.15 µM in the assay with SK-OV-3 ovarian; 3 µM in the assay with MALME-3M melanoma; 3.47 µM in the assay on EKVX NSCLC; 2.69 µM in the assay with OVCAR-3 ovarian. The TGI with HL-60(TB) leukemia amounted to 3.87 µM; in the assay on NCI-H460 lung, 4.15 µM.
